This test addresses monoclonal antibody products. To be noted: binding to monoclonal antibody products; read-out: dissociation constant (KD).

Our source for the Kd values is patent US20190167576A1, “USE OF HIGH AFFINITY MONOCLONAL ANTIBODY PRODUCT BINDERS TO INCREASE THE DURATION OF ACTION OF THERAPEUTIC MONOCLONAL ANTIBODY PRODUCTS IN A BIOLOGIC TISSUE” (priority 2016, published 2019).

A value given as a limit tells only on which side of the number the result lay.

As for `Nc1cccc(Nc2nc(NCCO)nc(NCC(O)CNc3nc(NCCO)nc(Nc4cccc(N)c4)n3)n2)c1` [Compound 1, 1,3-bis({4-[(3-aminophenyl)amino]-6-[(2-hydroxyethyl)amino]-1,3,5-triazin-2-yl}amnio)propan-2-ol], the Kd was below 1000 nM.
